Test results published in patent publication US20180086817A1, “Preventing, Treating or Arresting Alzheimer's, Stroke, Cardiovascular and other Amyloid Related Diseases” (priority 2016, published 2018).

Experiments:
L68Q cystatin C = molecular target: T1, L68Q cystatin C (Homo sapiens, UniProt P01034, L94Q); experiment: Preliminary trial of N-acetylcysteine in HCCAA patients expressing L68Q cystatin C, with biopsy; format: in vivo
T1 construct: confirmed by genetic screen to express L68Q cystatin C; from tissue; host or cells: HCCAA patients; biopsy (tissue not given)
T1 sequence (P01034 27-146 L94Q): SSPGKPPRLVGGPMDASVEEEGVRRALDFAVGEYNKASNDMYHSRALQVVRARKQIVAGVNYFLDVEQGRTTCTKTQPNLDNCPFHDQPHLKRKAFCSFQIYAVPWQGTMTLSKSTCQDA
Procedure: For an early test of effectiveness of glutathione supportive therapy in the treatment of HCCAA and similar disease involving plaque formation, human trials are planned using accepted and previously approved therapeutic interventions. Initial trials involve n-acetylcysteine based on its chemistry and historical acceptance in human therapies. Doses ranging from as low as 200 mg/day, but at least in the early trials, at higher levels to emphasize effect have been proposed with initial regulatory approvals in high risk HCCAA patients.
Three persons who had been identified through characteristic HCCAA symptoms confirmed by genetic screen to express L68Q cystatin C agreed to participate in a preliminary trial with a prototype drug to support antioxidant and other effects of GSH. N-acetylcysteine was used as a GSH-support/anti-cystatin-C-polymerization archetypical drug for conceptual proof and support of the hypotheses supporting this invention. […] One patient fully complied with the prescribed protocol. Two patients were only partially compliant. The fully compliant patient presented with a 50% reduction in plaques observed on biopsy.
Treatments are continuing, augmented by confirmatory/advisory biopsies. Biopsy intervals may be approximately weekly, but longer intervals are envisioned as sufficient to monitor effects and dosages and to encourage compliance in testing and treatment maintenance. For example, biopsy intervals may be weekly, biweekly, monthly, bimonthly, quarterly, semi-annual, annual, etc. Biopsy appointments may be used both for treatment/disease monitoring, but also to maintain patient attention and interaction. Medical advisory panels and insurance issues may also be considered in determining the frequency and type(s) of biopsies.

cellular glutathione = conditions: cited from earlier work

## CC(=O)N[C@@H](CS)C(=O)O [N-acetylcysteine]
L68Q cystatin C; all three HCCAA patients (L68Q cystatin C), one fully and two partially compliant
  disease course: disease arrest
L68Q cystatin C; fully compliant patient
  reduction in plaques observed on biopsy: 50%
L68Q cystatin C; one of the partially compliant patients
  aggregated protein previously observed: significant reduction
L68Q cystatin C; remaining non-compliant patient
  disease course: disease arrest

## O=C1N[C@H](C(=O)O)CS1 [OTC, L-2-oxothiazolidine-4-carboxolate]
Cellular glutathione; 25 mg/kg OTC in conjunction with 800 mg/day glutathione IM
  effect on glutathione over time: continued effect
Cellular glutathione; dose of about 22-65 mg/kg, post administration
  time by which effect wanes in plasma: ≤ 8 h
Cellular glutathione; dose of about 22-65 mg/kg, shortly after administration
  cellular glutathione: double
